Counter-ions that a name gives are not always drawn.
Key:
[1] = system: Aβ production in HEK cells over-expressing mutated β-APP (SFAD); assay: Aβ production inhibition, sandwich-ELISA in HEK cells, over-expressed mutated β-APP (SE-SFAD); format: cell-based, human; conditions: Homo sapiens, HEK293, HEK cells; for IC50: based on the respective plateau of maximum inhibition; for Emax: maximum inhibition plateau, read-out: SE-SFAD max. inhibition %
Method in brief: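 HEK cells expressing recombinant human wild-type or mutated (SFAD) β-APP treated with compound for 24 to 48 hours at 37° C, 10% CO2. IC50 based on plateau of maximum inhibition.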

[2] = system: Aβ production in HEK cells over-expressing Wild type β-APP; assay: Aβ production inhibition, sandwich-ELISA in HEK cells which over-express Wild type β-APP (SE-WT); format: cell-based, human; conditions: Homo sapiens; for IC50: HEK293, based on the respective plateau of maximum inhibition; for Emax: HEK293, maximum inhibition plateau, read-out: SE-WT max. inhibition %
Experimental: The effect of test substances on the inhibition of Aβ-amyloid production can be measured in the supernatant of cell cultures of β-APP expressed cells using ELISA tests or other quantitative determination methods for β-APP degradation products. Typically, 8×10^5 cells (e.g. HEK cells, which express recombinant human β-APP variants) are plated out in each well of a culture dish having 24 wells in growth media such as e.g. OPTIMEM (Gibco) and the test compound is then added. After an incubation period of 24 to 48 hours at 37° C. in a 10% CO2 atmosphere the supernatant is removed from the cell cultures and the β-APP degradation products (e.g. Aβ or β-[…]) are determined with the aid of ELISA (or sandwich ELISA) analysis or by means of quantitative immunoprecipitation (after metabolic radiolabelling of the cell proteins). Typically, 300 μl of the cell supernatant are tested according to the state of the art for ELISA tests in culture dishes having 96 wells. In the case of sandwich ELISA for Aβ, the binding antibody can be directed against the first 16 amino acids of Aβ-peptide (e.g. 6E10 Senetek, Maryland Heights, Mo.) and the detection antibody can be directed against amino acids 17-40 or 17-42 of Aβ and carries a detection system such as e.g. peroxidase. A simple ELISA test with an antibody, e.g. 22C11 (Boehringer Mannheim), can be used as the test for […]; the second antibody can be an anti-(mouse) Ig having a detection system, such as e.g. peroxidase. The peroxidase reaction can be carried out e.g. using a TMB substrate (BioRAD) and the measurements can be carried out at 650 nm using an ELISA reading apparatus. […] SE-SFAD signifies the Aβ production inhibition measured using sandwich-ELISA in HEK cells, SFAD signifies over-expressed mutated β-APP, and SE-WT signifies the Aβ production inhibition measured using sandwich-ELISA in HEK cells which over-express Wild type β-APP. The IC50 values are based on the respective plateau of maximum inhibition.

SMILES | IC50 [1] [µM] | Emax [1] [%] | IC50 [2] [µM] | Emax [2] [%]
COC1CN(C(=O)c2cc(-c3ccccc3)c(=O)n3ccc4ccsc4c23)C1 [Compound 39, 10-(3-Methoxy-azetidine-1-carbonyl)-8-phenyl-thieno[2,3-a]quinolizin-7-one] | 7 | 30 | 6 | 50
CC(C)C[C@H](N)COC(=O)c1cc(-c2ccccc2)c(=O)n2ccc3ccsc3c12 [Compound 31, 2-(S)-Amino-4-methyl-pentyl 7-oxo-8-phenyl-7H-thieno[2,3-a]-quinolizine-10-carboxylate] | 5.3 | 100 | 1.2 | 55
COC[C@H]1CCCN1C(=O)c1cc(-c2ccccc2)c(=O)n2ccc3ccsc3c12 [Compound 35, 10-(2-(R)-Methoxymethyl-pyrrolidine-1-carbonyl)-8-phenyl-thieno-[2,3-a]quinolizin-7-one] | 6 | 50 | 3 | 65
CC(=O)c1cc(-c2ccccc2)c(=O)n2ccc3ccsc3c12 [Compound 58, 10-Acetyl-8-phenyl-thieno[2,3-a]quinolizine-7-one] | 1 | 60 | 0.2 | 40
O=C(c1cc(-c2ccc(O)cc2)c(=O)n2ccc3ccsc3c12)N1CCC[C@@H]1CO [Compound 44, 10-(2-(R)-Hydroxymethyl-pyrrolidine-1-carbonyl)-8-(4-hydroxyphenyl)-thieno[2,3-a]quinolizin-7-one] | 6 | 50 | 5 | 50
COC(=O)c1cc(-c2ccccc2)c(=O)n2ccccc12 [Compound 33, Methyl 4-oxo-3-phenyl-4H-quinolizine-1-carboxylate] | 6 | 40 | 5 | 40
O=C(OCCN1CCOCC1)c1cc(-c2ccccc2)c(=O)n2ccc3ccsc3c12 [Compound 32, 2-Morpholin-4-yl-ethyl 7-oxo-8-phenyl-7H-thieno[2,3-a]quinolizine-10-carboxylate hydrochloride] | 30 | 100 | 3 | 100
Cc1cc(C)n(C(=O)c2cc(-c3ccccc3)c(=O)n3ccc4ccsc4c23)n1 [Compound 45, 10-(3,5-Dimethyl-pyrazole-1-carbonyl)-8-phenyl-thieno[2,3-a]-quinolizin-7-one] | 0.9 | 40 | 0.5 | 30
CC(C)OC1CCN(C(=O)c2cc(-c3ccccc3)c(=O)n3ccc4ccsc4c23)C1 (stereo not shown) [Compound 51, 10-(3-Isopropoxy-pyrrolidine-1-carbonyl)-8-phenyl-thieno[2,3-a]-quinolizin-7-one] | 60 | 100 | 24 | 100
O=C(OCCN1CCOC1=O)c1cc(-c2ccccc2)c(=O)n2ccc3ccsc3c12 [Compound 5, 2-(2-Oxo-oxazolidin-3-yl)-ethyl 7-oxo-8-phenyl-7H-thieno[2,3-a]-quinolizine-10-carboxylate] | 1 | 25 | 1.2 | 60
CN(C)CCOC(=O)c1cc(-c2ccccc2)c(=O)n2ccc3ccsc3c12 [Compound 53, 2-Dimethylamino-ethyl 7-oxo-8-phenyl-7H-thieno[2,3-a]quinolizine-10-carboxylate hydrochloride] | 9.5 | 80 | 8 | 100
CCN(CCOC)C(=O)c1cc(-c2ccccc2)c(=O)n2ccc3ccc(Cl)cc3c12 [Compound 42, 10-Chloro-4-oxo-3-phenyl-4H-pyrido[2,1-a]isoquinoline-1-carboxylic acid ethyl-(2-methoxy-ethyl)-amide] | 3 | 100 | 0.9 | 100
COC1CCCCC1N(C)C(=O)c1cc(-c2ccccc2)c(=O)n2ccc3ccsc3c12 (stereo not shown) [Compound 26, 7-Oxo-8-phenyl-7H-thieno[2,3-a]quinolizine-10-(2-methoxycyclohexyl)-methyl-amide] | 5 | 80 | 1.2 | 100
CCCN(CCOC)C(=O)c1cc(-c2ccc(C(C)(C)C)cc2)c(=O)n2ccc3ccsc3c12 [Compound 108, 8-(4-tert-Butyl-phenyl)-7-oxo-7H-thieno[2,3-a]quinolizine-10-carboxylicacid (2-methoxy-ethyl)-propyl-amide] | 1.4 | 100 | 1 | 100
CCN(CCOC)C(=O)c1cc(-c2ccccc2)c(=O)n2ccc3ccsc3c12 [Compound 20, 7-Oxo-8-phenyl-7H-thieno[2,3-a]quinolizine-10-carboxylic acid (2-methoxy-ethyl)-ethyl-amide] | 15 | 30 | 9 | 70
O=C(ON1C(=O)CCC1=O)c1cc(-c2ccccc2)c(=O)n2ccc3ccsc3c12 [Compound 43, 2,5-Dioxo-pyrrolidin-1-yl 7-oxo-8-phenyl-7H-thieno[2,3-a]quinolizine-10-carboxylate] | 2 | 50 | 5 | 70
COc1cccc(-c2cc(C(=O)NCc3ccccc3)c3c4sccc4ccn3c2=O)c1 [Compound 116, 8-(3-Methoxy-phenyl)-7-oxo-7H-thieno[2,3-a]quinolizine-10-carboxylic acid benzyl-amide] | 0.8 | 100 | 1 | 60 to 80
COC1CCN(C(=O)c2cc(-c3ccccc3)c(=O)n3ccc4ccsc4c23)CC1 [Compound 13, 10-(4-Methoxy-piperidine-1-carbonyl)-8-phenyl-thieno[2,3-a]-quinolizin-7-one] | 5 | 30 | 4 | 80
O=C1CC[C@@H](COC(=O)c2cc(-c3ccccc3)c(=O)n3ccc4ccsc4c23)N1 [Compound 4, 5-Oxo-pyrrolidin-2-(S)-yl-methyl 7-oxo-8-phenyl-7H-thieno[2,3-a]-quinolizine-10-carboxylate] | 10 | 25 | 5 | 25
O=c1c(-c2ccccc2)cc(-c2nc(C3CC3)no2)c2c3sccc3ccn12 [Compound 62, 10-(3-Cyclopropyl-[1,2,4]oxadiazol-5-yl)-8-phenyl-thieno[2,3-a]-quinolizin-7-one] | 0.5 | 65 | 2.7 | 80
COC(=O)c1cc(-c2ccc(C(C)(C)C)cc2)c(=O)n2ccc3ccsc3c12 [Compound 106, Methyl 8-(4-tert-butyl-phenyl)-7-oxo-7H-thieno[2,3-a]quinolizine-10-carboxylate] | 2.3 | 85 | 0.8 | 95
COCC1CCCN1C(=O)c1cc(-c2ccccc2)c(=O)n2ccc3ccc(Cl)cc3c12 (stereo not shown) [Compound 37, 10-Chloro-1-(2-methoxymethyl-pyrrolidine-1-carbonyl)-3-phenyl-pyrido [2,1-a]isoquinolin-4-one] | 7 | 100 | 1 | 70
